Read-outs that look alike come from different tables or passages of the source.
Legend:
CYP2B6 = biological target: T1, CYP2B6 (Homo sapiens, UniProt P20813); assay: Direct CYP inhibition assay using pooled HLM
T1 sequence (P20813 1-491): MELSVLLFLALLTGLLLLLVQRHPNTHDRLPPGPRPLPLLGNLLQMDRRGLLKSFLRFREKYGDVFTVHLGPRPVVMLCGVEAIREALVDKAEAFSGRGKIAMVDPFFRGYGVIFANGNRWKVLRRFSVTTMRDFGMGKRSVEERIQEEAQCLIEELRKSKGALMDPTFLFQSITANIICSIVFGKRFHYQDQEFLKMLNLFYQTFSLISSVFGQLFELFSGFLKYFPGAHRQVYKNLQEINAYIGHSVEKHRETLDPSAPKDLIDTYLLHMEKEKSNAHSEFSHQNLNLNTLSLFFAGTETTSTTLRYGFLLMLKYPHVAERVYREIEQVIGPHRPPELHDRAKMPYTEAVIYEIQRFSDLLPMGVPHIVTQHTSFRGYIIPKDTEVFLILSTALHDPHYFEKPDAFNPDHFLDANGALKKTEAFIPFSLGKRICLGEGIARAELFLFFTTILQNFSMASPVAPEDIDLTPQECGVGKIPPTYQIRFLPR
Description: (§1) The enzyme reactions were initiated by adding NADPH (1 mM), and the mixtures were incubated at 37 °C for 5 min in a shaking water bath (100 rpm). The reaction was terminated by adding ice-cold acetonitrile (ACN) containing CBZ (100 nM) and 4-methyl-umbelliferone (300 nM) as internal standards (IS).
(§2) The chromatographic separation was performed on an Agilent 1200 series HPLC system (Agilent Technologies, Santa Clara, CA, USA) equipped with an Atlantis^TM dC18 column (2.1 × 50 mm, 3 µm; Waters Corporation, Milford, MA, USA) with a SecuityGuard^TM C18 guard column (2.0 × 4.0 mm; Phenomenex, Torrance, CA, USA). The mobile phases consisted of double-deionized water (DDW) containing 0.1% (v/v) of formic acid (A) and ACN containing 0.1% (v/v) formic acid (B). […] The sample injection volume was 10 µL, and the total run time was 9.0 min. The column and auto-sampler compartments were maintained at 30 °C and 10 °C, respectively, throughout the analysis. The detection was performed using an API4000 Q-TRAP system equipped with a Turbo V Ion Spray^TM source (Applied Biosystems, Foster City, CA, USA). The operating conditions were optimized as follows: ionization voltage: 5500 V for positive-ion mode and −4500 V for negative-ion mode; ion source temperature: 550 °C; nebulizing gas flow: 50 L/min; auxiliary gas flow: 40 L/min; and curtain gas flow: 30 L/min. The samples were analyzed via multiple reaction monitoring (MRM) mode. […] The data acquisition and processing were performed using Analyst^TM software (version 1.5.2; Applied Biosystems, Foster City, CA, USA).

CYP2C8 = biological target: T2, CYP2C8 (Homo sapiens, UniProt P10632); assay: Direct CYP inhibition assay using pooled HLM
T2 sequence (P10632 1-490): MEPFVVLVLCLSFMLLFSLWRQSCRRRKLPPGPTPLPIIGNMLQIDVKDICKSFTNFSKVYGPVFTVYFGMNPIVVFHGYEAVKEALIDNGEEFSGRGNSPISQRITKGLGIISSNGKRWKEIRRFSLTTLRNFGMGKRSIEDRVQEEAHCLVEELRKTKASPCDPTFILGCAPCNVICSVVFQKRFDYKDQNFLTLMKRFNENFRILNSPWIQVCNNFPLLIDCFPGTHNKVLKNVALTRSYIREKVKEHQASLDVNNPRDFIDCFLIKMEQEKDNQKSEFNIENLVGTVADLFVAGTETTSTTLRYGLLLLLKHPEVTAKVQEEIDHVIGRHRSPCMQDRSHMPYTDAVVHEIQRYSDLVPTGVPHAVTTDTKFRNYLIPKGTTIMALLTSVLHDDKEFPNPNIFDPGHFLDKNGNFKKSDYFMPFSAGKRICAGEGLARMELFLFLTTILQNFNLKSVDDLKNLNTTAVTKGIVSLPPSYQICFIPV
Description: as §1, §2

CYP1A2 = biological target: T3, CYP1A2 (Homo sapiens, UniProt P05177); assay: Direct CYP inhibition assay using pooled HLM
T3 sequence (P05177 1-516): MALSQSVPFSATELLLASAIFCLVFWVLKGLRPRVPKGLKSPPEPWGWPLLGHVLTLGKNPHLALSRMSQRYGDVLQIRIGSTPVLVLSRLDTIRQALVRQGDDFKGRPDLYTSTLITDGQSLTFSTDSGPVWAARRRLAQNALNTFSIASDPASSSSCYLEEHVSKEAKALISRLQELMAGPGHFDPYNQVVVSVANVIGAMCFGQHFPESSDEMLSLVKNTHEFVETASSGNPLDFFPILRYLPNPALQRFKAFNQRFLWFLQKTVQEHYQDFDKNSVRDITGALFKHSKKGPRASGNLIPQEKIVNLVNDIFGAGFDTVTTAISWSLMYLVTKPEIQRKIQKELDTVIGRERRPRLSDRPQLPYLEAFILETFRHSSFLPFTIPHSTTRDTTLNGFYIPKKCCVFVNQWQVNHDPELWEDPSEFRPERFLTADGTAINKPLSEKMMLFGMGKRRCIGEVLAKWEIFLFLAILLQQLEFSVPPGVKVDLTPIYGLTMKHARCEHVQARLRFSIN
Description: as §1, §2

CYP3A4 = CYP3A4 (Homo sapiens, UniProt P08684); assay: Direct CYP inhibition assay using pooled HLM; settings: for IC50: direct inhibition, 95% confidence intervals in parentheses
Sequence of CYP3A4 (P08684 whole entry): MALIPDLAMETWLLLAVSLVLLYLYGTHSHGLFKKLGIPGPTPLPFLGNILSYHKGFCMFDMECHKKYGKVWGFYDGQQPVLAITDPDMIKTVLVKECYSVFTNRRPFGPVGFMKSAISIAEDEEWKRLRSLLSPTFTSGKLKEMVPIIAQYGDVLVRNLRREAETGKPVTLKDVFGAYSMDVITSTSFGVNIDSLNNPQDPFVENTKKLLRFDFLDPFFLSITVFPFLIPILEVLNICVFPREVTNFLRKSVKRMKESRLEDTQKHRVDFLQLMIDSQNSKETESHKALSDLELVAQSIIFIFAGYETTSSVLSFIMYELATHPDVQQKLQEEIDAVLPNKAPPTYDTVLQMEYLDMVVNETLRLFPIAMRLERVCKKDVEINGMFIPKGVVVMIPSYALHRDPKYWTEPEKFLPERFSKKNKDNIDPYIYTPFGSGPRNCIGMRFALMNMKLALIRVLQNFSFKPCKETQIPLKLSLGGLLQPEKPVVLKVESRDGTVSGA
Description: as §1, §2

CYP2C9 = CYP2C9 (Homo sapiens, UniProt P11712); assay: Direct CYP inhibition assay using pooled HLM
Sequence of CYP2C9 (P11712 whole entry): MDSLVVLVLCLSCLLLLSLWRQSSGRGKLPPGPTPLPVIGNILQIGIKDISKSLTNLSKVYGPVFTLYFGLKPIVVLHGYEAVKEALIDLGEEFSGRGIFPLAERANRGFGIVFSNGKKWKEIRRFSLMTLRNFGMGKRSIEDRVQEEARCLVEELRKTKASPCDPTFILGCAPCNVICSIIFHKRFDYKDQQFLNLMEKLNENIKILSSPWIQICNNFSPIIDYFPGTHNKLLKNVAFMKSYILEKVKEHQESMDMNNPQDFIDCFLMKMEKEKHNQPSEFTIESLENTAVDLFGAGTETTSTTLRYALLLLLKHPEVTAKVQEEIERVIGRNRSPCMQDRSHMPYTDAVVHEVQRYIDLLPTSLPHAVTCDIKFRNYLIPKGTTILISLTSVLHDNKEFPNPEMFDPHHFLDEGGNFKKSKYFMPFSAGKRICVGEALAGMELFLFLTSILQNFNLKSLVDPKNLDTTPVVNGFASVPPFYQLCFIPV
Description: as §1, §2

CYP2E1 = CYP2E1 (Homo sapiens, UniProt P05181); assay: Direct CYP inhibition assay using pooled HLM
Sequence of CYP2E1 (P05181 whole entry): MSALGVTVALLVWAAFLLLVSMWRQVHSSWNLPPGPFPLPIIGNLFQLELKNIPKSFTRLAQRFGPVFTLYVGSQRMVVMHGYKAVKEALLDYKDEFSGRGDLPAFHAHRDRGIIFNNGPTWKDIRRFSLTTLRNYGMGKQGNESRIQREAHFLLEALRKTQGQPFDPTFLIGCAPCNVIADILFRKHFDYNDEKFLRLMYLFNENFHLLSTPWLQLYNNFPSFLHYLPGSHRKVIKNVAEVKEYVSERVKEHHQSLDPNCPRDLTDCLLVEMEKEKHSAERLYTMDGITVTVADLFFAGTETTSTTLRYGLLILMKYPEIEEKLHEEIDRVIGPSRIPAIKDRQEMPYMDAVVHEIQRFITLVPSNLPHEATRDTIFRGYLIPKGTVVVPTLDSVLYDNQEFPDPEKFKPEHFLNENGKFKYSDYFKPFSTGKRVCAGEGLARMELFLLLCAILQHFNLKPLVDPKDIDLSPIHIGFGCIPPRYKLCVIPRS
Description: as §1, §2

CYP2D6 [1] = biological target: T4, CYP2D6 (Homo sapiens, UniProt P10635); assay: Metabolism-dependent CYP2D6 inhibition assay (IC50 shift) using pooled HLM; settings: for MDI (metabolism-dependent inhibition) of CYP2D6 (in words): pre-incubation with NADPH
T4 sequence (P10635 whole entry): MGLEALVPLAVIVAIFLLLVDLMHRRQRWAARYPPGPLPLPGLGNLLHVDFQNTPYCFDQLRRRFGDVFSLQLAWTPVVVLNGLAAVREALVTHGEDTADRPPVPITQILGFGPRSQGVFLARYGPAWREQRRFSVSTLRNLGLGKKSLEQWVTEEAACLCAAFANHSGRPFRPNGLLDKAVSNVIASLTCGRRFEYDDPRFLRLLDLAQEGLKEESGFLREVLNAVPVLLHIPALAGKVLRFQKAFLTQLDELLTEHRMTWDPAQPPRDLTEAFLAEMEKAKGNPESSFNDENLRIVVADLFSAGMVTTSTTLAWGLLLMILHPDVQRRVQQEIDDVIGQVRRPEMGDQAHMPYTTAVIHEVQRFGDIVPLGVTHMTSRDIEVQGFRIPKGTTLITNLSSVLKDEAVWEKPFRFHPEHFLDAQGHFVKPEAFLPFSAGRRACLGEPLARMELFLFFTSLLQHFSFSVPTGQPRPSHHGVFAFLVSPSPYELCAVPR
Description: Pre-incubation was performed in pooled HLM (0.2 mg/mL) added with BBR, THB, TFD, or DMB, or rhCYP2D6 (10 pmol/mL) added with BBR, with or without NADPH (1 mM) in phosphate buffer (0.1 M; pH 7.4) for 30 min. Then, the CYP2D6 substrate (5 µM of dextromethorphan) and NADPH (1 mM) were added to the mixture and incubated for another 10 min. All incubations were carried out at 37 °C in a shaking water bath (100 rpm) using eight-well tube strips placed in an 8 × 12 rack, where the final volume of each reaction mixture was 200 µL. […] The enzyme reactions were quenched by adding an aliquot (200 µL) of ice-cold ACN containing CBZ (100 nM) as an IS. The samples were centrifuged, and the concentration of CYP2D6 metabolite (i.e., dextrorphan, produced by O-demethylation of dextromethorphan) in supernatants were analyzed using the LC-MS/MS method described in Section 2.2.

CYP2A6 = biological target: T5, CYP2A6 (Homo sapiens, UniProt P11509); assay: Direct CYP inhibition assay using pooled HLM
T5 sequence (P11509 1-494): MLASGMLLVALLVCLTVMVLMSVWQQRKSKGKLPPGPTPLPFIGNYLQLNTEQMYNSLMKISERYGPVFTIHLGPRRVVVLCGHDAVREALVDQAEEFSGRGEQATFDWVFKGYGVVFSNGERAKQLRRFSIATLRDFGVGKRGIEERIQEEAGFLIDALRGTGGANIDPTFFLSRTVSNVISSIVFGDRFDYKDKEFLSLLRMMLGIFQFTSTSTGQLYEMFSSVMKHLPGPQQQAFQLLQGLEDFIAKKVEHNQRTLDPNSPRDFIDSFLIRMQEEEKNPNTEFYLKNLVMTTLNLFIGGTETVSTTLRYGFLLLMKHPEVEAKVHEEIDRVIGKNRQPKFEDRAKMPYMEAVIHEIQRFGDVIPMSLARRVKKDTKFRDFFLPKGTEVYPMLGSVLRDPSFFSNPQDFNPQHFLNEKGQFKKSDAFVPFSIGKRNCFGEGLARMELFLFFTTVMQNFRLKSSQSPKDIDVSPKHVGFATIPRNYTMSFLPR
Description: as §1, §2

CYP2D6 [2] = biological target: T4, CYP2D6; assay: Direct CYP inhibition assay using pooled HLM
Description: as §1, §2

CYP2C19 = CYP2C19 (Homo sapiens, UniProt P33261); assay: Direct CYP inhibition assay using pooled HLM
Sequence of CYP2C19 (P33261 whole entry): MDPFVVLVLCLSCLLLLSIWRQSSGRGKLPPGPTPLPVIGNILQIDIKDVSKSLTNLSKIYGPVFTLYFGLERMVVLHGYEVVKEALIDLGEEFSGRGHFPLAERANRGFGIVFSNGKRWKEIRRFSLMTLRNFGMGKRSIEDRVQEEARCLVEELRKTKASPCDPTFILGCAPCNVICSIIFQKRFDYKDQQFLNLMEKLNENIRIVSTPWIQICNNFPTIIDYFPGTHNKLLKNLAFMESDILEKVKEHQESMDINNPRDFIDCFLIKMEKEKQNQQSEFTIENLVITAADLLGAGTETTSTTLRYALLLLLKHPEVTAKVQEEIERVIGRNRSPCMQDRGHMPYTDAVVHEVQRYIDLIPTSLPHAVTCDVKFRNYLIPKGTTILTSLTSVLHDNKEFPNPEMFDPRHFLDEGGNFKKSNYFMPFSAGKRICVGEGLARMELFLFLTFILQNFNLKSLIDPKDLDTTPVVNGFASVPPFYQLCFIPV
Description: as §1, §2

[3] = assay type: in vitro ADME, human; settings: human, 1 µM
Description: Table 3. Putative M1 metabolite produced in pooled HLM incubated with thalifendine or
Precursor molecules Incubation time (min)a M1 signal at m/z 310 (103 × cps)b
Demethyleneberberine 0 107 ± 3
a Thalifendine or demethyleneberberine (1 μM) was incubated with pooled HLM in the presence of
NADPH-generating system; b Each value represents the mean ± SD for three separate samples. […]

[4] = Metabolic stability and metabolite formation of BBR in pooled HLM; settings: BBR 1 µM in pooled HLM with NADPH-generating system, mean ± SD
Description: To evaluate NADPH-dependent metabolism, BBR (1 µM) was incubated with pooled HLM (1 mg/mL) in the presence of the NADPH-regenerating system (1 mM of NADP^+, 5 mM of G6P, and 1 U/mL of G6PDH) to be a final volume of 200 µL. The reactions were quenched by adding the same volume of ice-cold ACN containing CBZ (100 nM) at 0, 7.5, 15, 30, 60, and 120 min of incubation. The incubation mixtures were centrifuged at 1000× g for 20 min at 4 °C, and the supernatants were analyzed by the LC-MS/MS system described in Section 2.2.
Meanwhile, to identify the known metabolites of BBR, an aliquot (5 µL) of the supernatant was injected into an accurate-MS system consisting of an Agilent 6530 Q-TOF LC/MS equipped with dual AJS ESI ion source (Agilent Technologies) and Agilent 1200 series HPLC system (Agilent Technologies). Chromatographic separations were performed on an Agilent Eclipse Plus C18 column (150 × 2.1 mm, 3.5 µm; Agilent Technologies) by gradient elution with a binary mobile phase consisting of DDW with 0.1% (v/v) formic acid (A) and ACN with 0.1% (v/v) formic acid (B) at a flow rate of 0.2 mL/min, where the mobile phase B was set as follows: 2% at 0 min, 20% at 15 min, and 30% at 20–25 min, followed by re-equilibration for 3 min.
In vitro metabolic stability parameters, including half-life (t1/2) and microsomal intrinsic clearance (CLint,mic), were determined according to our previous report [32]. The degradation t1/2 values of the microsomal stability studies were calculated using the following Equation (2):(2) t1/2=0.693/k, where k represents the first-order degradation rate constant. The k values were estimated by fitting a one-phase exponential decay model to the parent drug remaining (%) vs. incubation time plots using GraphPad Prism 5.0 (GraphPad Software Inc., San Diego, CA, USA).
The CLint,mic was determined using the in vitro half-life approach.

[5] = system: CYP enzymes (range over all CYP enzymes tested); assay: Direct CYP inhibition assay using pooled HLM, all CYP enzymes tested; assay type: in vitro ADME, human; settings: human, pooled human liver microsomes, pH 7.4, read-out: IC50 values, range over all CYP enzymes tested (pan-CYP inhibitory activities)
Description: as §1
(§3) The chromatographic separation was performed on an Agilent 1200 series HPLC system (Agilent Technologies, Santa Clara, CA, USA) equipped with an Atlantis^TM dC18 column (2.1 × 50 mm, 3 µm; Waters Corporation, Milford, MA, USA) with a SecuityGuard^TM C18 guard column (2.0 × 4.0 mm; Phenomenex, Torrance, CA, USA). The mobile phases consisted of double-deionized water (DDW) containing 0.1% (v/v) of formic acid (A) and ACN containing 0.1% (v/v) formic acid (B). […] The sample injection volume was 10 µL, and the total run time was 9.0 min. The column and auto-sampler compartments were maintained at 30 °C and 10 °C, respectively, throughout the analysis. The detection was performed using an API4000 Q-TRAP system equipped with a Turbo V Ion Spray^TM source (Applied Biosystems, Foster City, CA, USA). […] The samples were analyzed via multiple reaction monitoring (MRM) mode. […]

CYP enzymes = assay: as above; assay type: in vitro ADME, human; settings: read-out: IC50 values, range over all CYP enzymes tested (pan-CYP inhibitory activities)
Description: as §1, §3

[6] = IC50 CYP3A4 (MDZ), substrate MDZ
[7] = IC50 CYP3A4 (TST), substrate TST

Molecule | MDI (metabolism-dependent inhibition) of CYP2D6 (in words) (CYP2D6 [1]; pooled HLM) | IC50 (CYP2B6) [µM] | IC50 (CYP2C8) [µM] | IC50 (CYP1A2) [µM] | IC50 (CYP3A4; [6]) [µM] | IC50 (CYP3A4; [7]) [µM] | IC50 (CYP2C9) [µM] | IC50 (CYP2E1) [µM] | IC50 (CYP2A6) [µM] | IC50 (CYP2D6 [2]) [µM] | IC50 (CYP2C19) [µM] | Concentration in incubation mixture (elimination of BBR and formation of its metabolites) ([4]; 0 min) [nM] | Concentration in incubation mixture (elimination of BBR and formation of its metabolites) ([4]; 7.5 min) [nM] | Concentration in incubation mixture (elimination of BBR and formation of its metabolites) ([4]; 15 min) [nM] | Concentration in incubation mixture (elimination of BBR and formation of its metabolites) ([4]; 30 min) [nM] | Concentration in incubation mixture (elimination of BBR and formation of its metabolites) ([4]; 60 min) [nM] | Concentration in incubation mixture (elimination of BBR and formation of its metabolites) ([4]; 120 min) [nM] | other results
COc1ccc2c(c1OC)CN1CCc3cc4c(cc3C1C2)OCO4 (stereo not drawn) [THB, tetrahydroberberine] | exhibited MDI |  |  |  |  |  |  |  |  |  |  |  |  |  |  |  |  | Inhibition of CYP2B6 (in words) (CYP2B6; pooled HLM, up to 100 µM): not markedly inhibited; Inhibition of CYP2C8 (in words) (CYP2C8; pooled HLM, up to 100 µM): not markedly inhibited; Inhibition of CYP1A2 (in words) (CYP1A2; pooled HLM, up to 100 µM): not markedly inhibited; Inhibition of CYP3A4 (in words) (CYP3A4; up to 100 µM, substrates MDZ and TST): not markedly inhibited; Inhibition of CYP2C9 (in words) (CYP2C9; pooled HLM, up to 100 µM): not markedly inhibited; Inhibition of CYP2E1 (in words) (CYP2E1; pooled HLM, up to 100 µM): not markedly inhibited; Fold reduction in IC50 against CYP2D6 (IC50 shift) (CYP2D6 [1]; pooled HLM, pre-incubation with vs without NADPH): 2.2 fold; IC50 (CYP2D6 [1]; read-out: IC50 against CYP2D6, pre-incubation with NADPH, pooled HLM, 30 min pre-incubation with NADPH): 0.306 µM; IC50 (CYP2D6 [1]; read-out: IC50 against CYP2D6, pre-incubation without NADPH, pooled HLM, 30 min pre-incubation without NADPH): 0.661 µM; Inhibition of CYP2A6 (in words) (CYP2A6; pooled HLM, up to 100 µM): not markedly inhibited; IC50 (CYP2D6 [2]; read-out: IC50 CYP2D6, pooled HLM, direct inhibition, substrate dextromethorphan, 95% confidence intervals in parentheses): 0.97 µM; Inhibition of CYP2C19 (in words) (CYP2C19; pooled HLM, up to 100 µM): not markedly inhibited
COc1c(O)ccc2cc3[n+](cc12)CCc1cc2c(cc1-3)OCO2 [TFD, thalifendine] | exhibited MDI | > 100 | > 100 | > 100 | > 100 | > 100 | > 100 | 32 | > 100 | 28 | > 100 | 5.4 ± 0.1 | 20.9 ± 0.4 | 33.3 ± 0.6 | 44.3 ± 1.0 | 50.4 ± 0.7 | 49.3 ± 1.0 | IC50 (CYP2D6 [1]; IC50 against CYP2D6, pre-incubation with NADPH, pooled HLM, 30 min pre-incubation with NADPH): 6.49 µM; IC50 (CYP2D6 [1]; IC50 against CYP2D6, pre-incubation without NADPH, pooled HLM, 30 min pre-incubation without NADPH): 20.6 µM; IC50 shift at 10 min (CYP2D6 [1]; human, pooled human liver microsomes, pH 7.4, probe dextromethorphan (5 µM)): 3.2; M1 signal at m/z 310 ([3]; 0 min): 6 ± 1 103 × cps; M1 signal at m/z 310 ([3]; 30 min): 2200 ± 125 103 × cps
demethylene-TFD [M1] |  |  |  |  |  |  |  |  |  |  |  |  |  |  |  |  |  | M1 (m/z = 310) signal formed from BBR ([4]; 0 min): 1.3 ± 0.25 1000 × cps; M1 (m/z = 310) signal formed from BBR ([4]; 7.5 min): 28 ± 0.66 1000 × cps; M1 (m/z = 310) signal formed from BBR ([4]; 15 min): 80 ± 0.31 1000 × cps; M1 (m/z = 310) signal formed from BBR ([4]; 30 min): 220 ± 2.6 1000 × cps; M1 (m/z = 310) signal formed from BBR ([4]; 60 min): 540 ± 15 1000 × cps; M1 (m/z = 310) signal formed from BBR ([4]; 120 min): 1100 ± 26 1000 × cps
COc1ccc2cc3[n+](cc2c1O)CCc1cc2c(cc1-3)OCO2 [BRB, berberrubine] |  | 96 | 72 | 51 | 28 | 45 | 57 | 34 | 17 | 45 | 49 | 5.4 ± 0.1 | 5.6 ± 0.0 | 5.8 ± 0.1 | 6.0 ± 0.1 | 6.1 ± 0.0 | 6.2 ± 0.0 | IC50 at 5 min [5]: 17 to 96 µM
COc1ccc2c(c1O)CN1CCc3cc4c(cc3C1C2)OCO4 (stereo not drawn) [TRB, Tetrahydroberberrubine·acetate] |  |  |  |  |  |  |  |  |  |  |  |  |  |  |  |  |  | IC50 (CYP2B6; read-out: IC50 CYP2B6, pooled HLM, direct inhibition, 95% confidence intervals in parentheses): 9.6 µM; IC50 (CYP2C8; microsomes): 9.5 µM; IC50 (CYP1A2; microsomes): 6.9 µM; IC50 (CYP2C9; microsomes): 6.5 µM; IC50 (CYP2E1; read-out: IC50 CYP2E1, pooled HLM, direct inhibition, 95% confidence intervals in parentheses): 2.7 µM; IC50 (CYP2A6; microsomes): 4.7 µM; IC50 (CYP enzymes): 2.7 to 9.6 µM; IC50 (CYP2D6 [2]; microsomes): 3.4 µM; IC50 (CYP2C19; read-out: IC50 CYP2C19, pooled HLM, direct inhibition, 95% confidence intervals in parentheses): 5.4 µM
COc1cc2c(cc1O)CC[n+]1cc3c(OC)c(OC)ccc3cc1-2 [JTZ, jatrorrhizine] |  | > 100 | 26 | > 100 |  |  | > 100 | 11 | > 100 | 10 | > 100 | 10.4 ± 0.3 | 10.7 ± 0.1 | 10.9 ± 0.3 | 10.5 ± 0.3 | 10.0 ± 0.2 | 9.6 ± 0.2 | 

— publication PMC7600264, “Quasi-Irreversible Inhibition of CYP2D6 by Berberine” (Pharmaceutics, 2020)
